Like-named read-outs stand apart in the source and are kept apart here.
Tests used:
MCF10A = experiment: MTT cytotoxicity assay, MCF10A normal breast epithelial cell line; assay type: cell-based; settings: MCF10A normal cells, read-out: MCF10A IC50 (µM) ± SD
Excerpt: (§1) To evaluate the antitumor activity of the newly synthesized sulfonamide carbonic anhydrase inhibitors (compounds M3, M4, and M5), we employed cell line assays using 3-(4,5-dimethylthiazol-2-yl)-2,5-diphenyltetrazolium (MTT). Two cell types were utilized in this study: MCF-7, a breast cancer cell line, to assess the effects of the compounds on cancer cells, and MCF10A, a normal breast epithelial cell line, to evaluate the effects on non-cancerous cells. These cell lines were procured from the Iranian National Cell Bank at the Pasteur Institute. MCF-7 cells were cultured in RPMI-1640 medium, while MCF10A cells were cultured in DMEM: F12 medium. Both media were supplemented with 10% fetal bovine serum (FBS), followed by the addition of antibiotics (100 µg/ml streptomycin and 100 units/ml penicillin). The cells were maintained in a humidified atmosphere at 37°C with 5% carbon dioxide. For cell passaging, a trypsin/EDTA solution (Gibco) and phosphate-buffered saline (PBS) were utilized. Cell viability was assessed using MTT from Sigma-Aldrich. Each type of cell (MCF-7 and MCF10A) was cultured separately in 96-well plates (1.4 × 10^4 cells per well with 200 µl of fresh medium) after a full day had passed (temperature of 37°C in a 5% CO2 environment). The supernatant was removed, and MTT solution at a concentration of 200 µl was added to each well and then incubated for four hours at a temperature of 37°C. After the end of the incubation period and to dissolve the formazan crystals, 100 µl of dimethyl sulfoxide (DMSO) was added, and the plate was left in a shaker at a temperature of 37°C until it was confirmed that all the crystals had completely dissolved. An ELISA reader (Model Wave xs2, BioTek) was used to measure cell vitality by absorption at 570 nm and calculate the IC50 values.

MCF-7 = experiment: MTT cytotoxicity assay, MCF-7 breast cancer cell line; assay type: cell-based, human; settings: MCF-7, MTT
Excerpt: as §1

[1] = Homo sapiens, MCF7, read-out: MCF-7 IC50 (µM) ± SD

Row | Structure (SMILES) | IC50 (MCF10A; Homo sapiens, MCF-10A) [µM] | IC50 (MCF-7; [1]) [µM] | IC50 (MCF10A) [µM] | IC50 (MCF-7; read-out: MCF-7 IC50 (µM) ± SD) [µM] | IC50 (MCF-7; Homo sapiens, MCF7, read-out: IC50 against MCF-7 cells) [µg/mL]
1 | NS(=O)(=O)c1ccc(Nc2csc(N=Cc3ccc(O)cc3)n2)cc1 (stereo in doubt) [Compound M3, (Z)-4-((2-((4-hydroxybenzylidene)amino)thiazol-4-yl)amino) benzene sulfonamide] | 135 ± 4.19 | 87.7 ± 2.16 | – | – | –
2 | N.N.[Cl][Pt][Cl] [Cisplatin, reference compound] | – | – | 13.6 ± 3.45 | 15.1 ± 2.25 | –
3 | CN(C)c1ccc(/C=N/c2nc(Nc3ccc(S(N)(=O)=O)cc3)cs2)cc1 [Compound M4] | 52.5 ± 3.31 | 77.4 ± 3.31 | – | – | 77.4

Reference: article PMC10994617, “In silico study, synthesis, and antineoplastic evaluation of thiazole-based sulfonamide derivatives and their silver complexes with expected carbonic anhydrase inhibitory activity” (Journal of Medicine and Life, 2023)
